Results published in patent US20110190135A1, “SYNERGISTIC HERBICIDAL COMPOSITION CONTAINING PENOXSULAM AND BUTACHLOR” (DOW AGROSCIENCES LLC, priority 2010, published 2011).

Legend:
ECHCG - barnyard grass [1] = assay: Weed control in transplanted rice, Field trial #1; assay type: in vivo, Ehinochloa crus-galli; details: 42 days after application
Description: (§1) Field trials were conducted in rice using standard herbicide small plot research methodology. Plot size was 2 m^2 using 1.6 m diameter rings placed into the paddy soil with capability for flooding with water to represent flooded rice culture. There were 3 replicates per treatment. Rice was Japonica type that was sown in rice nursery boxes as per normal cultural practices, and then transplanted 30 days after sowing into flooded rings. The rice crop was grown using normal cultural practices for fertilization, seeding, watering, flooding and maintenance to ensure good growth of the crop and the weeds under seeded rice conditions in Taiwan. Ring plot water depth was maintained at 3 to 7 cm depth after transplanting. Just prior to treatment application, plot water was drained to maintain saturated soil in ring plot. Treatments were applied by hand and water was re-induced to 3 to 7 cm depth 24 hours after application. All treatments in the field trials were applied by mixing the treatments with soil just prior to application by hand into the ring plots at 5 to 7 days after transplanting. Commercially available products of penoxsulam and butachlor were mixed in water and sprayed onto 45 grams of soil, which is equivalent to the area treated at an application rate of 225 kg soil/ha. […]

ECHCG - barnyard grass [2] = assay: Weed control in transplanted rice, Field trial #2; assay type: in vivo, Ehinochloa crus-galli; details: 28 days after application
Description: Field trials were conducted in rice using standard herbicide small plot research methodology. Plot size was 2 m^2 using 1.6 m diameter rings placed into the paddy soil with capability for flooding with water to represent flooded rice culture. There were 3 replicates per treatment. Rice was Japonica type that was sown in rice nursery boxes as per normal cultural practices, and then transplanted 30 days after sowing into flooded rings. The rice crop was grown using normal cultural practices for fertilization, seeding, watering, flooding and maintenance to ensure good growth of the crop and the weeds under seeded rice conditions in Taiwan. Ring plot water depth was maintained at 3 to 7 cm depth after transplanting. Just prior to treatment application, plot water was drained to maintain saturated soil in ring plot. Treatments were applied by hand and water was re-induced to 3 to 7 cm depth 24 hours after application. All treatments in the field trials were applied by mixing the treatments with soil just prior to application by hand into the ring plots at 5 to 7 days after transplanting. Commercially available products of penoxsulam and butachlor were mixed in water and sprayed onto 45 grams of soil, which is equivalent to the area treated at an application rate of 225 kg soil/ha. For each 2 m^2 plot, 45 g soil was mixed with the appropriate formulated product amounts to treat 2 m^2 to achieve the desired application rates based on unit area of application (hectare). Treatments were rated as compared to the untreated control plots. Visual weed control was rated on a scale of 0 to 100 percent, where 0 corresponds to no injury and 100 corresponds to complete kill. The treated plots and control plots were rated blind at various intervals after application. Ratings were based of Percent (%) Visual weed control, where 0 corresponds to no injury and 100 corresponds to complete kill. Colby's equation was used to determine the herbicidal effects expected from the mixtures (Colby, S. R. Calculation of the synergistic and antagonistic response of herbicide combinations. Weeds 1967 15, 20-22). The following equation was used to calculate the expected activity of mixtures containing two active ingredients, A and B: Expected=A+B−(A×B/100) A=observed efficacy of active ingredient A at the same concentration as used in the mixture; B=observed efficacy of active ingredient B at the same concentration as used in the mixture.

MOOVA - pickerel weed = assay: Weed control in transplanted rice, Field trial #2; assay type: in vivo, Monochoria vaginalis; details: 28 days after application
Description: as §1

ISCRU - winklegrass = assay: Weed control in transplanted rice, Field trial #3; assay type: in vivo, Ischaemum rugosum; details: 42 days after application
Description: as §1

SMILES	ECHCG Obs - percent control observed (ECHCG - barnyard grass [1]; Butachlor 600 grams ai/ha) [%]	ECHCG Obs - percent control observed (ECHCG - barnyard grass [2]; Butachlor 300 grams ai/ha) [%]	MOOVA Obs - percent control observed (MOOVA - pickerel weed; Butachlor 300 grams ai/ha) [%]	ISCRU Obs - percent control observed (ISCRU - winklegrass; Butachlor 300 grams ai/ha) [%]	ECHCG Obs - percent control observed (ECHCG - barnyard grass [1]; Penoxsulam 30 grams ai/ha) [%]	ECHCG Obs - percent control observed (ECHCG - barnyard grass [2]; Penoxsulam 3.8 grams ai/ha) [%]	ECHCG Obs - percent control observed (ECHCG - barnyard grass [2]; Penoxsulam 7.5 grams ai/ha) [%]	ECHCG Obs - percent control observed (ECHCG - barnyard grass [2]; Penoxsulam 15 grams ai/ha) [%]	MOOVA Obs - percent control observed (MOOVA - pickerel weed; Penoxsulam 3.8 grams ai/ha) [%]	ISCRU Obs - percent control observed (ISCRU - winklegrass; Penoxsulam 13 grams ai/ha) [%]
CCCCOCN(C(=O)CCl)c1c(CC)cccc1CC [Butachlor, N-butoxymethyl-2-chloro-2′,6′-diethylacetanilide]	0	13	26	23						
COc1cnc(OC)n2nc(NS(=O)(=O)c3c(OCC(F)F)cccc3C(F)(F)F)nc12 [Penoxsulam]					27	0	15	88	75	1
